The text below walks through data of patent US6342217B1, “Radiation enhanced gene therapy for tumors expressing a gene for a viral pyrimidine kinase in the presence of a 5′-halogenated pyrimidine” (Human Gene Therapy Research Institute, priority 1995, dated 2002).

For data set [1], the system named is A375NV (no vector) melanoma cells. In words: in vitro clonogenic assay of radiosensitivity, non-transduced cells. It is filed as cell-based, human. From the text:
(§1) For this example, a vector, termed LNSTK was kindly provided by F. Moolten which contained the HS-tk gene driven by the SV40 early promoter. Other transformation vectors containing the HS-tk retroviral vector such as the LTKOSN.2 vector by the Human Gene Therapy Research Institute (Des Moines, Iowa) are commercially available. Another such vector is the GITkSvNa vector by Genetic Therapy Inc., Gaithersburg, Md. A human A375 melanoma cell line was used because of its ease of growth and rapid colony formation in a clonogenic assay. The survival of A375NV (no vector) and A375TK (transduced with LNStk vector) after 30 GY of gamma-radiation with 0,1, or 10 µg/ml IdC is shown in FIG. 2.
(§2) […] cells were plated in a 100 cm^2 tissue culture dish in free media. The next day drug was added in the appropriate concentration. 48 hours later the cells were irradiated with 30 GY from a 250 KV X-ray machine as a single dose. The cells were then trypsinized and replated at between 2.5×10^2 and 1×10^6 cells per plate in triplicate for each data point. After twelve days the cells were fixed, stained and macroscopic colonies containing […] were counted. Measurements in the graph were corrected for plating efficiency. […] Irradiated A375 NV preincubated with 0,1 or 10 μg/ml of IdC had 18.6, 19.3 and 18.3 percent survival respectively. Irradiated A375 tk cells preincubated with 0,1, or 10 μg/ml of IdC had 15.7, 9.9 and 4.4 percent survival respectively.
(§3) In FIG. 3 another experiment is shown, design similar to Example 1. This experiment compared radio sensitivity of A375 NV and A375 tk cells after preincubation with 10 μg/ml of BrdC for 48 hours before X-ray exposure. […] Survival percentages for cells incubated with 10 μg of BrdC and then irradiated with 30 Gy were divided by the survival fraction of cells incubated with 10 μg/ml of BrdC and then mock irradiated.

Data set [2] concerns A375TK (transduced with LNStk vector) melanoma cells. Nature of the data set: in vitro clonogenic assay of radiosensitivity, HS-tk transduced cells. It is filed as cell-based, human. Conditions: for survival (figure legend): cells transformed with the STK vector, drug and radiation.
Excerpt: as §1, §2, §3

Data set [3] deals with mammalian deoxycytidine kinase (Homo sapiens, UniProt P27707). Conditions: with respect to mammalian deoxycytidine kinase; cited from earlier work.
Sequence of mammalian deoxycytidine kinase (P27707 whole entry): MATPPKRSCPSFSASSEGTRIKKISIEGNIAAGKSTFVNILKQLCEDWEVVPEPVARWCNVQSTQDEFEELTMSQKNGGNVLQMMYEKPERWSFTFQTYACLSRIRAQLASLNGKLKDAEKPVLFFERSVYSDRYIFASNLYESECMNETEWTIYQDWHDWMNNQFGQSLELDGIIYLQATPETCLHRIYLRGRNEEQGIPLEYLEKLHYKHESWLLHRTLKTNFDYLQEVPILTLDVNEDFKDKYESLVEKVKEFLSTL
The target of data set [4] is T1, Mammalian thymidine kinase (Homo sapiens, UniProt P04183).
T1 sequence (P04183 1-234): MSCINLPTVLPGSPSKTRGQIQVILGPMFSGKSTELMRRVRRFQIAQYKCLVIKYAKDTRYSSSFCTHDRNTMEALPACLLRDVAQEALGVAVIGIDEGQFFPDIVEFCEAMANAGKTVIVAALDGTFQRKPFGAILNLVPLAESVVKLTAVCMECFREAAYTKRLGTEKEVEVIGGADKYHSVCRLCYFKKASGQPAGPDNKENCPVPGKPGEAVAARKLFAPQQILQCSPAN
As to conditions: cited from earlier work.

Data set [5] concerns the target Herpes pyrimidine nucleoside kinase (HSV-tk) (Human herpesvirus 1, UniProt P0DTH5). As to conditions: with respect to Herpes pyrimidine nucleoside kinase / HSV-tk; cited from earlier work.
The next data set concerns mammalian cells. Conditions: cited from earlier work.
In data set [6] the test system is mixture of 50% A375 NV and 50% A375 HS-tk cells. Nature of the data set: clonogenic assay of bystander effect, mixed cells at high density. It is filed as cell-based, human. As to conditions: 10 μg/ml, 30 Gy. The method, then: Without wishing to be bound by any theory it is hypothesized that HSV-tk transduced tumor cells are able to sensitize non transduced tumor cells in their vicinity through a bystander effect via metabolic cooperation. Specifically, cells that are not transduced with HS-tk gene can also be sensitized to radiation. […] These cells were plated at a density of 3×10^6 cells per 100 cm^2 tissue culture dish the afternoon prior to adding 10 μg/ml BrdC to the media. […] In contrast the experimentally obtained survival for this mixture of cells when plated together at high density was only 6.2%.

[7] abbreviates: irradiated (30 Gy) A375 tk preincubated with 10 μg/ml, before adjustment.
The mark [8] stands for this setting: non irradiated A375 tk, 10 μg/ml drug 48 h, compared to non-irradiated control cells not preincubated with drug.

Sequence of Herpes pyrimidine nucleoside kinase (HSV-tk) (P0DTH5 whole entry): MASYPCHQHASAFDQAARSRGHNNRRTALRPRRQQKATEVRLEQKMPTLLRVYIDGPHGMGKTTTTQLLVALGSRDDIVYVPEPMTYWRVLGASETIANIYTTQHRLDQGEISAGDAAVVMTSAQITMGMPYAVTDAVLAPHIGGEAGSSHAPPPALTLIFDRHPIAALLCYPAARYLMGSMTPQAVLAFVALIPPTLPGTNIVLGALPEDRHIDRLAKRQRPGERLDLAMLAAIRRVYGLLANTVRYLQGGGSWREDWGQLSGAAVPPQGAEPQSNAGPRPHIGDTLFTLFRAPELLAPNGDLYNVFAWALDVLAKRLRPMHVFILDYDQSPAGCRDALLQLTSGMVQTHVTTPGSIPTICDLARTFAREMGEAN

With `Nc1nc(=O)n([C@H]2C[C@H](O)[C@@H](CO)O2)cc1I` [IdC, 5-iodo-2′-deoxycytidine], the “radiation potentiation in the absence of the HS-tk gene” value in data set [1] (IdC 1 or 10 μg/ml, 30 Gy) is “no degree radiation potentiation was seen”. Further, the percent survival in data set [1] (irradiated (30 Gy) A375 NV preincubated with 1 μg/ml) is 19.3%; in data set [1] (irradiated (30 Gy) A375 NV preincubated with 10 μg/ml), 18.3%; in data set [2] (irradiated (30 Gy) A375 tk preincubated with 1 μg/ml), 9.9%; in data set [2] (setting [7]), 4.4%. The survival in data set [1] (non irradiated A375 NV, 10 μg/ml drug 48 h, compared to non-irradiated control cells not preincubated with drug) is on record as 73%; in data set [2] (setting [8]), 54%. Besides, the “survival (figure legend)” value in data set [1] (nontransformed cells treated with radiation) is reported as “approximately 50%”; in data set [2], “less than 10%”. In addition, the Michaelis constant (Km) (as a rule, the substrate concentration at which the rate is half of its maximum) in data set [3] was 4000 µM; in data set [5], 2 µM. Moreover, in data set [4], the “phosphorylation by mammalian thymidine kinase” value is “cannot phosphorylate”.

For the molecule `O=C1NC(O)CCN1[C@@H]1O[C@H](CO)[C@@H](O)[C@H]1O` (some centres unmarked) [Tetrahydrouridine, tetrahydrouridine], in the data set on mammalian cells, the “safety in mammalian cells” value is “safe and non toxic”.

Turning to `Nc1ccn([C@H]2C[C@H](O)[C@@H](CO)O2)c(=O)n1` [Deoxycytidine, deoxycytidine, reference compound], the Km in data set [5] is 500 µM.

Consider `Nc1nc(=O)n([C@H]2C[C@H](O)[C@@H](CO)O2)cc1Br` [BrdC, 5-bromo-2′-deoxycytidine], for which the survival in data set [1] (100% A375 NV plated at 3×10^6 cells per dish (about 90% confluent), 10 μg/ml, 30 Gy) stood at 13.1%; in data set [2] (100% A375 tk plated at 3×10^6 cells per dish (about 90% confluent), 10 μg/ml, 30 Gy) it was 3.5%; in data set [2] (setting [8]), 33%. Moreover, the “adjusted survival (irradiated survival divided by nonirradiated surviving fraction)” value in data set [1] (A375 NV, 10 μg/ml, 30 Gy) worked out at 9%; in data set [2] (A375 tk, 10 μg/ml, 30 Gy), 6.9%. The “survival (figure legend)” value in data set [2] was “less than 10%”. Moreover, the percent survival in data set [2] (setting [7]) is listed as 2.3%. Moreover, the “experimentally obtained survival of the mixture” value in data set [6] (50% A375 tk and 50% A375 NV plated together at high density) turned out to be 6.2%. Besides, in data set [6] (50% A375 tk and 50% A375 NV, theoretical), the “expected survival of the mixture (half of tk plus half of NV survival)” value stood at 8.3%. Moreover, the Km in data set [3] is 2100 µM; in data set [5], 2 µM. Also, in data set [4], the “phosphorylation by mammalian thymidine kinase” value is listed as “cannot phosphorylate”.
